The record followed here is US20090275583A1, “ANTIVIRAL COMPOUNDS AND USE THEREOF” (Myriad Genetics, Incorporated, priority 2006, published 2009).

The subject of assay [1] is HIV-1 laboratory strain, NL4-3. The experiment in a line: MT-4 cytoprotection assay. It is filed as cell-based. The note with it: Human immunodeficiency virus 1, NL43, MT4, 96 h; MT-4 cells, four days incubation, WST-1 readout; read-out: MT4 EC50. In a few lines: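 MT-4 cells mock- or batch-infected with NL4-3 (MOI 0.0005) for 2 h, washed, then cultured 4 days with increasing compound concentrations. Viability read by WST-1 tetrazolium reduction: cytoprotection in infected cells, toxicity in mock-infected cells.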
(Formazan colour is commonly taken as a measure of viable cells.)

For assay [2], the system named is HIV-1NL4-3. In words: P4-MAGI assay. It is filed as cell-based. To be noted: Human immunodeficiency virus 1, 24 h, P4 cells, 24 hour incubation, β-galactosidase expression; read-out: P4-MAGI IC50. In a few lines:
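Cytotoxicity (TC50, 50% growth inhibition) came from WST-1 in uninfected cells. For antiviral activity, compound at rising concentrations was added immediately after HIV-1NL4-3 inoculation (MOI 1, DEAE-Dextran) of P4 cells, CD4+ HeLa cells expressing β-galactosidase from a minimal HIV-1 LTR upon infection.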

The EC50 is the concentration giving half of the maximal effect. A word on the IC50: it is the midpoint of a concentration-inhibition curve.

As to `C/C(=C/C#N)[C@@H]1CC[C@]2(C(=O)NCCc3cccc(C(=O)NCc4ccc(C(=O)O)cn4)c3)CC[C@]3(C)C(CCC4[C@@]5(C)CC[C@H](O)C(C)(C)C5CC[C@]43C)C12` (some centres unmarked) [Example 269], the EC50 in assay [1] came out at 39 nM. The 50% inhibitory concentration (IC50) in assay [2] is 11.4 nM.
The like results for `CC(O)(CN1CCCC1)[C@@H]1CC[C@]2(C(=O)NCCc3cccc(C(=O)NCc4ccc(C(=O)O)cn4)c3)CC[C@]3(C)C(CCC4[C@@]5(C)CC[C@H](O)C(C)(C)C5CC[C@]43C)C12` (some centres unmarked) [Example 270] were, in that order, 441 nM and 100 nM.
On the same counts, the results for `CC1(C)C2CC[C@]3(C)C(CCC4C5[C@H]([C@@](C)(O)CO)CC[C@]5(C(=O)NCCc5cccc(C(=O)NCc6ccc(C(=O)O)cn6)c5)CC[C@]43C)[C@@]2(C)CC[C@@H]1O` (some centres unmarked) [Example 271] are 1810 nM and 119 nM.
The like results for `C=C(C)[C@@H]1CC[C@]2(C(=O)NCCc3cccc(C(=O)NCc4ccc(C(=O)NCCc5cnc[nH]5)cn4)c3)CC[C@]3(C)C(CCC4[C@@]5(C)CC[C@H](O)C(C)(C)C5CC[C@]43C)C12` (some centres unmarked) [Example 272] were, in that order, 12.4 nM and 3.1 nM.
`C=C(C)[C@@H]1CC[C@]2(C(=O)NCCc3ccc(C)c(C(=O)NCc4ccc(C(=O)O)cn4)c3)CC[C@]3(C)C(CCC4[C@@]5(C)CC[C@H](O)C(C)(C)C5CC[C@]43C)C12` (some centres unmarked) [Example 273]: in assay [1], the EC50 stood at 1860 nM. For the same molecule, in assay [2], the concentration for half-maximal inhibition (IC50) was 127 nM.
As for `C=C(C)[C@@H]1CC[C@]2(C(=O)NCCc3ccc(C)c(C(=O)NCc4ccc(C(=O)O)cc4)c3)CC[C@]3(C)C(CCC4[C@@]5(C)CC[C@H](O)C(C)(C)C5CC[C@]43C)C12` (some centres unmarked) [Example 274], the 50% effective concentration (EC50) in assay [1] came out at 4320 nM. For the same molecule, the IC50 in assay [2] came to 84.5 nM.
The like results for `C=C(C)[C@@H]1CC[C@]2(C(=O)NCCc3cccc(C(=O)N[C@@H](C)c4cccc[n+]4[O-])c3)CC[C@]3(C)C(CCC4[C@@]5(C)CC[C@H](O)C(C)(C)C5CC[C@]43C)C12` (some centres unmarked) [Example 275] were, in that order, 1000 nM and 180 nM.
